Data published in patent publication US6764996B1, “9a-azalides with antibacterial activity” (Abbott Laboratories, priority 1999, dated 2004).

What was measured:
Assay in all cases: In vitro antibacterial activity, agar dilution MIC
Assay type in all cases: cell-based
[1] = tested on: Streptococcus Pneumonia 5979; details: code ZZ: Streptococcus Pneumonia 5979; BHI agar, 35-37° C., 20 to 24 hours; unit assumed
Protocol: (§1) Representative compounds of the present invention were assayed in vitro for antibacterial activity as follows: Twelve petri dishes containing successive aqueous dilutions of the test compound mixed with 10 mL of sterilized Brain Heart Infusion (BHI) agar (Difco 0418-01-5) were prepared. Each plate was inoculated with 1:100 (or 1:10 for slow-growing strains, such as Micrococcus and Streptococcus) dilutions of up to 32 different microorganisms, using a Steers replicator block. The inoculated plates were incubated at 35-37° C. for 20 to 24 hours. In addition, a control plate, using BHI agar containing no test compound, was prepared and incubated at the beginning and end of each test.
(§2) An additional plate containing a compound having known susceptibility patterns for the organisms being tested and belonging to the same antibiotic class as the test compound was also prepared and incubated as a further control, as well as to provide test-to-test comparability.
(§3) After incubation, each plate was visually inspected. The minimum inhibitory concentration (MIC) was defined as the lowest concentration of drug yielding no growth, a slight haze, or sparsely isolated colonies on the inoculum spot as compared to the growth control.

[2] = tested on: Staphylococcus epidermidis 3519; details: code HH: Staphylococcus epidermidis 3519; BHI agar, 35-37° C., 20 to 24 hours; unit assumed
Protocol: as §1
as §2, with “comparability. Erythromycin A was used for this purpose.” for “comparability.”
as §3

[3] = tested on: Streptococcus Pneumonia ATCC 6303; details: code XX: Streptococcus Pneumonia ATCC 6303; BHI agar, 35-37° C., 20 to 24 hours; unit assumed
Protocol: as §1
as §2, with “comparability. Erythromycin A was used for this purpose.” for “comparability.”
as §3

[4] = tested on: Streptococcus pyogenes EES61; details: code LL: Streptococcus pyogenes EES61; BHI agar, 35-37° C., 20 to 24 hours; unit assumed
Protocol: as §1
as §2, with “comparability. Erythromycin A was used for this purpose.” for “comparability.”
as §3

Escherichiacoli SS = details: code RR: Escherichiacoli SS; BHI agar, 35-37° C., 20 to 24 hours; unit assumed
Protocol: as §1
as §2, with “comparability. Erythromycin A was used for this purpose.” for “comparability.”
as §3

[5] = tested on: Staphylococcus aureus ATCC 6538P; details: code AA: Staphylococcus aureus ATCC 6538P; BHI agar, 35-37° C., 20 to 24 hours; unit assumed
Protocol: as §1
as §2, with “comparability. Erythromycin A was used for this purpose.” for “comparability.”
as §3

Escherichiacoli JUHL = details: code QQ: Escherichiacoli JUHL; BHI agar, 35-37° C., 20 to 24 hours; unit assumed
Protocol: as §1
as §2, with “comparability. Erythromycin A was used for this purpose.” for “comparability.”
as §3

[6] = tested on: Streptococcus pyogenes PIU 2548; details: code NN: Streptococcus pyogenes PIU 2548; BHI agar, 35-37° C., 20 to 24 hours; unit assumed
Protocol: as §1
as §2, with “comparability. Erythromycin A was used for this purpose.” for “comparability.”
as §3

[7] = tested on: Haemophilislnfluenzae DILL AMP R; details: code WW: Haemophilislnfluenzae DILL AMP R; BHI agar, 35-37° C., 20 to 24 hours; unit assumed
Protocol: as §1
as §2, with “comparability. Erythromycin A was used for this purpose.” for “comparability.”
as §3

[8] = tested on: Micrococcusluteus ATCC 4698; details: code PP: Micrococcusluteus ATCC 4698; BHI agar, 35-37° C., 20 to 24 hours; unit assumed
Protocol: as §1
as §2, with “comparability. Erythromycin A was used for this purpose.” for “comparability.”
as §3

[9] = tested on: Nocardia Asteroides ATCC 99700; details: code VV: Nocardia Asteroides ATCC 99700; BHI agar, 35-37° C., 20 to 24 hours; unit assumed
Protocol: as §1
as §2, with “comparability. Erythromycin A was used for this purpose.” for “comparability.”
as §3

[10] = tested on: Staphylococcus aureus 1775; details: code GG: Staphylococcus aureus 1775; BHI agar, 35-37° C., 20 to 24 hours; unit assumed
Protocol: as §1
as §2, with “comparability. Erythromycin A was used for this purpose.” for “comparability.”
as §3

[11] = tested on: Mycobacterium smegmatis ATCC 114; details: code UU: Mycobacterium smegmatis ATCC 114; BHI agar, 35-37° C., 20 to 24 hours; unit assumed
Protocol: as §1
as §2, with “comparability. Erythromycin A was used for this purpose.” for “comparability.”
as §3

[12] = tested on: Streptococcus pyogenes 930; details: code MM: Streptococcus pyogenes 930; BHI agar, 35-37° C., 20 to 24 hours; unit assumed
Protocol: as §1
as §2, with “comparability. Erythromycin A was used for this purpose.” for “comparability.”
as §3

[13] = tested on: Streptococcus Pneumonia GYR 1171; details: code YY: Streptococcus Pneumonia GYR 1171; BHI agar, 35-37° C., 20 to 24 hours; unit assumed
Protocol: as §1
as §2, with “comparability. Erythromycin A was used for this purpose.” for “comparability.”
as §3

[14] = tested on: Streptococcus Pneumonia 5649; details: code ZA: Streptococcus Pneumonia 5649; BHI agar, 35-37° C., 20 to 24 hours; unit assumed
Protocol: as §1
as §2, with “comparability. Erythromycin A was used for this purpose.” for “comparability.”
as §3

[15] = tested on: Streptococcus bovis A-5169; details: code JJ: Streptococcus bovis A-5169; BHI agar, 35-37° C., 20 to 24 hours; unit assumed
Protocol: as §1
as §2, with “comparability. Erythromycin A was used for this purpose.” for “comparability.”
as §3

Candida albicans CCH 442 = details: code TT: Candida albicans CCH 442; BHI agar, 35-37° C., 20 to 24 hours; unit assumed
Protocol: as §1
as §2, with “comparability. Erythromycin A was used for this purpose.” for “comparability.”
as §3

[16] = tested on: Staphylococcus aureus NCTC 10649M; details: code EE: Staphylococcus aureus NCTC 10649M; BHI agar, 35-37° C., 20 to 24 hours; unit assumed
Protocol: as §1
as §2, with “comparability. Erythromycin A was used for this purpose.” for “comparability.”
as §3

[17] = tested on: Staphylococcus aureus A-5278; details: code CC: Staphylococcus aureus A-5278; BHI agar, 35-37° C., 20 to 24 hours; unit assumed
Protocol: as §1
as §2, with “comparability. Erythromycin A was used for this purpose.” for “comparability.”
as §3

[18] = tested on: Streptococcus agalactiae CMX 508; details: code KK: Streptococcus agalactiae CMX 508; BHI agar, 35-37° C., 20 to 24 hours; unit assumed
Protocol: as §1
as §2, with “comparability. Erythromycin A was used for this purpose.” for “comparability.”
as §3

[19] = tested on: Staphylococcus aureus A-5177; details: code BB: Staphylococcus aureus A-5177; BHI agar, 35-37° C., 20 to 24 hours; unit assumed
Protocol: as §1
as §2, with “comparability. Erythromycin A was used for this purpose.” for “comparability.”
as §3

| SMILES | Antibacterial Activity (MIC) [1] [µg/mL] | Antibacterial Activity (MIC) [2] [µg/mL] | Antibacterial Activity (MIC) [3] [µg/mL] | Antibacterial Activity (MIC) [4] [µg/mL] | Antibacterial Activity (MIC) (Escherichiacoli SS) [µg/mL] | Antibacterial Activity (MIC) [5] [µg/mL] | Antibacterial Activity (MIC) (Escherichiacoli JUHL) [µg/mL] | Antibacterial Activity (MIC) [6] [µg/mL] | Antibacterial Activity (MIC) [7] [µg/mL] | Antibacterial Activity (MIC) [8] [µg/mL] | Antibacterial Activity (MIC) [9] [µg/mL] | Antibacterial Activity (MIC) [10] [µg/mL] | Antibacterial Activity (MIC) [11] [µg/mL] | Antibacterial Activity (MIC) [12] [µg/mL] | Antibacterial Activity (MIC) [13] [µg/mL] | Antibacterial Activity (MIC) [14] [µg/mL] | Antibacterial Activity (MIC) [15] [µg/mL] | Antibacterial Activity (MIC) (Candida albicans CCH 442) [µg/mL] | Antibacterial Activity (MIC) [16] [µg/mL] | Antibacterial Activity (MIC) [17] [µg/mL] | other results |
| --- | --- | --- | --- | --- | --- | --- | --- | --- | --- | --- | --- | --- | --- | --- | --- | --- | --- | --- | --- | --- | --- |
| CCC1OC(=O)C(C)C(OC2CC(C)(OC)C(O)C(C)O2)C(C)C(OC2OC(C)CC(N(C)C)C2O)C(C)(OCC=Cc2cnc3ccccc3c2)CC(C)CN(C)C(C)C(O)C1(C)O (centres unmarked) [Example 7, Compound of formula (I): R^1 is —CH2CH═CH-(3-quinolinyl), R^4 is hydrogen, R^5 is hydrogen, R^6 is methyl, R^7 is hydrogen, R^8 is hydrogen] | > 128 | 0.2 | 0.12 | 0.05 | 0.39 | 0.1 | 100 | 6.2 | 8 | 0.2 | 0.05 | > 100 | 6.2 | > 100 | 0.12 | 16 | 0.1 | > 100 | 0.39 | > 100 | Antibacterial Activity (MIC) [18]: 0.1 µg/mL; Antibacterial Activity (MIC) [19]: 3.1 µg/mL |
| C=CCOC1(C)CC(C)CN(C)C(C)C(O)C(C)(O)C(CC)OC(=O)C(C)C(O)C(C)C1OC1OC(C)CC(N(C)C)C1O (centres unmarked) [Example 4, Compound of formula (II): R^1 is —CH2CH═CH2, R^2 is hydrogen, R^3 is —OR^13, R^13 is hydrogen, R^4 is hydrogen, R^5 is hydrogen, R^6 is methyl, R^8 is hydrogen] | > 128 | 0.39 | 0.03 | 0.05 | 0.78 | 0.39 | 50 | 6.2 | 4 | 0.39 | 0.05 | > 100 | 6.2 | > 100 | 0.03 | 8 | 0.02 | > 100 | 0.39 | > 100 | Antibacterial Activity (MIC) [18]: 0.05 µg/mL; Antibacterial Activity (MIC) [19]: 6.2 µg/mL |
